Test results reported in patent US20260109721A1, “IONIZABLE CATIONIC LIPIDS INCORPORATING SILICON: SYNTHESIS AND LNP FORMULATION” (priority 2023, published 2026).

Experiment: LNP size, PDI and zeta potential by Dynamic Light Scattering (Method A)
Format: physicochemical
Conditions: LNP formulated with the lipid, DLS
Experimental: The synthesized lipids were tested in term of in vitro transfection efficacy and toxicity on HeLa cells. In order to perform the mentioned biological tests, appropriate LNPs had to be formulated from the synthesized lipids. The formulation technique was different in Method A and B. The particle size, polydispersity index (PDI) and zeta potential of resulting LNPs were determined by means of Dynamic Light Scattering technique (DLS). Prior to biological testing the encapsulation efficiency (EE) of the loaded LNPs was determined by using RiboGreen RNA assay. In case of Method A Luc mRNA while in case of Method B GFP mRNA was transfected into the cells. In parallel with the transfection experiments, toxicity of the investigated LNPs was determined, in case of Method A resazurin assay while in case of Method B MTT assay was used. Additionally, the toxicity of the lipids was investigated on HepG2 cells and IC50 values were determined.
• 1. If needed, prepare stock solutions by solving known amounts of lipid powder into an appropriate solvent. The recommended solvent is ethanol and the recommended concentration is typically in the range 10-50 mM. Higher concentrations are preferred to allow flexibility on mRNA-LNP concentration. • 2. Remove the lipid stock solutions from the −20° C. freezer. For long-term storage, −80° C. is used. • 3. Check the vials for precipitation, DOPE (CAS #4004-05-1) (20 mM) and DSPE-PEG (CAS #474922-26-4) (5 mM) may need a 5-30 minute incubation step at 37° C. with intermittent vortexing to resuspend all contents. […] As a last resort, lipids may be heated to 50° C. to resuspend, time should be kept as short as possible to prevent oxidation or other modifying or degradative processes. • 4. Mix the lipids by vortexing for 2 minutes. • 5. […] Cooling the solution prevent excessive evaporation of ethanol or similar solvents upon opening. • 6. Meanwhile, thaw the RNA samples, including the latest SecNLuc control, by inserting the frozen tube in a room temperature aluminium block. • 7. Prepare for each LNP-formulation with identical mRNA component, an RNA master mix according to Table 1 below in a fresh tube. Use of a master mix allows more precise comparison of lipid formulations relative to each other. Split the master mix over a number of fresh tubes equal to the number of samples+controls. Each tube contains 375 μl of mRNA in 10 mM Citrate pH 4.0. • 8. Prepare for each LNP formulation with identical lipid composition a Lipid master mix according to Table 1 below in a fresh tube, exclude the lipid of interest. Use of a master mix allows more precise comparison of the novel ionizable lipid relative to each other. Split the master mix over a number of fresh tubes equal to the number of samples+controls. Each tube contains 65.5 μl of lipid master mix. • 9. Add the ionizable lipid of interest to the equally divide lipid master mix. Mix well by pipetting up and down. Label the tube according to the ionizable lipid used. • 10. Power on the L1 FM (L1 Formulation Machine uses 2 high-speed syringe pumps to mix lipids in organic solvents with mRNA in acidic aquous solution to generate well-defined LNPs. The microfluidic mixing chip involves a dean-type structure performing the high-efficiency mixing at a total flow rate (TFR) of around 12 ml/min at a 3:1 mixing ratio) and allow it to do a calibration of motor positions.
• 18. Fill a fresh syringe (C) through a blunt 18G stainless steel needle with the previously prepared RNA mixture of step 6. The volume should be approximately 85% of total formulation volume+25 μl (dead-volume). Make sure to remove all air bubbles by tapping. • 19. Fill a fresh syringe (D) through a blunt 18G stainless steel needle with the Lipid master mix. The volume should be approximately […] of total formulation volume+25 μl (dead-volume). Again, Make sure to remove all bubbles. • 20. Attach the syringes in the correct orientation, syringe A on the left and syringe B on the right • 21.

SMILES	PDI	Size (nm)	Zeta potential (mV)
CCCCC/C=C\C/C=C\CCCCCCCCO[Si](C)(C)OC(CCCCCCC/C=C\CCCCCCCC)OCCCN(C)C (stereo not drawn) [Example 81, (17Z,20Z)-5-((Z)-heptadec-8-en-1-yl)-N,N,7,7-tetramethyl-4,6,8-trioxa-7-silahexacosa-17,20-dien-1-amine]	0.10	104	−25.24
CCCCC/C=C\C/C=C\CCCCCCCCOC(CCCCCCC/C=C\C/C=C\CCCCC)O[Si](C)(C)O[Si](C)(C)CCCCCCN(CCO)CCO (stereo not drawn) [Example 82, (24Z,27Z)-14-((8Z,11Z)-heptadeca-8,11-dien-1-yl)-3-(2-hydroxyethyl)-10,10,12,12-tetramethyl-11,13,15-trioxa-3-aza-10,12-disilatritriaconta-24,27-dien-1-ol]	0.26	97.5	−16.31
CCCCCCCC/C=C\CCCCCCCCOC(=O)C(C)(C)CC(OCCCCCCCC/C=C\CCCCCCCC)O[Si](C)(C)OCCCCCCN(CCO)CCO (stereo not drawn) [Example 84, (Z)-octadec-9-en-1-yl 1-hydroxy-3-(2-hydroxyethyl)-11,11,15,15-tetramethyl-13-(((Z)-octadec-9-en-1-yl)oxy)-10,12-dioxa-3-aza-11-silahexadecan-16-oate]	0.15	71.7	−16.66
CCCCCCCC/C=C\CCCCCCCCOC(=O)C(C)(C)CC(OCCCCCCCC/C=C\CCCCCCCC)O[Si](C)(C)OCCCCCCN1CCOCC1 (stereo not drawn) [Example 85, (Z)-octadec-9-en-1-yl 4-((dimethyl((6-morpholinohexyl)oxy)silyl)oxy)-2,2-dimethyl-4-(((Z)-octadec-9-en-1-yl)oxy)butanoate]	0.1	96.37	−14.54
CCCCCCCC/C=C\CCCCCCCCOC(=O)C(C)(C)CC(OCCCCCCCC/C=C\CCCCCCCC)O[Si](C)(C)OCCCCCCN(CCCCO)CCCCO (stereo not drawn) [Example 86, (Z)-octadec-9-en-1-yl 18-hydroxy-14-(4-hydroxybutyl)-2,2,6,6-tetramethyl-4-(((Z)-octadec-9-en-1-yl)oxy)-5,7-dioxa-14-aza-6-silaoctadecanoate]	0.25	109.7	−13.69
CCCCCCCC/C=C\CCCCCCCCOC(=O)C(C)(C)CC(OCCCCCCCC/C=C\CCCCCCCC)O[Si](C)(C)OCCCCCCN1CCCCC1 (stereo not drawn) [Example 87, (Z)-octadec-9-en-1-yl 4-((dimethyl((6-(piperidin-1-yl)hexyl)oxy)silyl)oxy)-2,2-dimethyl-4-(((Z)-octadec-9-en-1-yl)oxy)butanoate]	0.06	101.8	−12.28
CCCCCCCC/C=C\CCCCCCCCOC(=O)C(C)(C)CC(OCCCCCCCC/C=C\CCCCCCCC)O[Si](C)(C)OCCCCCCN(CCCO)CCCO (stereo not drawn) [Example 88, (Z)-octadec-9-en-1-yl 1-hydroxy-4-(3-hydroxypropyl)-12,12,16,16-tetramethyl-14-(((Z)-octadec-9-en-1-yl)oxy)-11,13-dioxa-4-aza-12-silaheptadecan-17-oate]	0.21	86.51	−7.76
CCCCCCCC/C=C\CCCCCCCCOC(=O)C(C)(C)CC(OCCCCCCCC/C=C\CCCCCCCC)O[Si](C)(C)OCCCCCCN1CCCCC1CO (stereo not drawn) [Example 89, (Z)-octadec-9-en-1-yl 4-((((6-(2-(hydroxymethyl)piperidin-1-yl)hexyl)oxy)dimethylsilyl)oxy)-2,2-dimethyl-4-(((Z)-octadec-9-en-1-yl)oxy)butanoate]	0.12	97.17	−10.93
CCCCCCCC/C=C\CCCCCCCCOC(=O)C(C)(C)CC(OCCCCCCCC/C=C\CCCCCCCC)O[Si](C)(C)OCCCCCCN1CCCC1CO (stereo not drawn) [Example 90, (Z)-octadec-9-en-1-yl 4-((((6-(2-(hydroxymethyl)pyrrolidin-1-yl)hexyl)oxy)dimethylsilyl)oxy)-2,2-dimethyl-4-(((Z)-octadec-9-en-1-yl)oxy)butanoate]	0.14	100.2	−16.19
CCCCCCCC/C=C\CCCCCCCCOC(=O)C(C)(C)CC(OCCCCCCCC/C=C\CCCCCCCC)O[Si](C)(C)OCCCCCCN(C)CCCCO (stereo not drawn) [Example 91, (Z)-octadec-9-en-1-yl 18-hydroxy-2,2,6,6,14-pentamethyl-4-(((Z)-octadec-9-en-1-yl)oxy)-5,7-dioxa-14-aza-6-silaoctadecanoate]	0.17	85.49	−15.27
CCCCCCCC/C=C\CCCCCCCCOC(=O)C(C)(C)CC(OCCCCCCCC/C=C\CCCCCCCC)O[Si](C)(C)OCCCCCCN(C)CC(O)CO (stereo not drawn) [Example 92, (Z)-octadec-9-en-1-yl 1,2-dihydroxy-4,12,12,16,16-pentamethyl-14-(((Z)-octadec-9-en-1-yl)oxy)-11,13-dioxa-4-aza-12-silaheptadecan-17-oate]	0.23	85.81	−12.56
CCCCCCCC/C=C\CCCCCCCCOC(=O)C(C)(C)CC(OCCCCCCCC/C=C\CCCCCCCC)O[Si](C)(C)OCCCCCCN(C)CCO (stereo not drawn) [Example 93, (Z)-octadec-9-en-1-yl 1-hydroxy-3,11,11,15,15-pentamethyl-13-(((Z)-octadec-9-en-1-yl)oxy)-10,12-dioxa-3-aza-11-silahexadecan-16-oate]	0.15	82.7	−14.61
CCCCCCCC/C=C\CCCCCCCCOC(=O)C(C)(C)CCC(OCCCCCCCC/C=C\CCCCCCCC)O[Si](C)(C)OCCCCCCN(CCO)CCO (stereo not drawn) [Example 94, (Z)-octadec-9-en-1-yl 1-hydroxy-3-(2-hydroxyethyl)-11,11,16,16-tetramethyl-13-(((Z)-octadec-9-en-1-yl)oxy)-10,12-dioxa-3-aza-11-silaheptadecan-17-oate]	0.24	93.8	−12.89
CCCCCCCC/C=C\CCCCCCCCOC(=O)C(C)(C)CCC(OCCCCCCCC/C=C\CCCCCCCC)O[Si](C)(C)OCCCCCCN1CCOCC1 (stereo not drawn) [Example 95, (Z)-octadec-9-en-1-yl 5-((dimethyl((6-morpholinohexyl)oxy)silyl)oxy)-2,2-dimethyl-5-(((Z)-octadec-9-en-1-yl)oxy)pentanoate]	0.15	90.33	−20.80
CCCCCCCC/C=C\CCCCCCCCOC(=O)C(C)(C)CC(OCCCCCCCC/C=C\CCCCCCCC)O[Si](C)(C)OCCCCCCN(CCO)CCN(CCO)CCCCCCO[Si](C)(C)OC(CC(C)(C)C(=O)OCCCCCCCC/C=C\CCCCCCCC)OCCCCCCCC/C=C\CCCCCCCC (stereo not drawn) [Example 96, di((Z)-octadec-9-en-1-yl) 14,17-bis(2-hydroxyethyl)-2,2,6,6,25,25,29,29-octamethyl-4,27-bis(((Z)-octadec-9-en-1-yl)oxy)-5,7,24,26-tetraoxa-14,17-diaza-6,25-disilatriacontanedioate]	0.14	81.42	−17.77
